From PMC10905675, “INX-315, a Selective CDK2 Inhibitor, Induces Cell Cycle Arrest and Senescence in Solid Tumors” (Cancer Discovery, 2023)

Tests used:
Test in all cases: SelectScreen LanthaScreen Binding
Conditions in all cases: INX-0315 at 100nM
MAP4K3 (GLK) = molecular target: T1, MAP4K3 (GLK) (Homo sapiens, UniProt Q8IVH8)
T1 construct: purchased Thermo Fisher Scientific SelectScreen (plus Nanosyn / Reaction Biology for CDK/cyclin lines)
Description: (§1) INX-315 was first evaluated in the SelectScreen Biochemical Kinase Profiling at Thermo Fisher Scientific (Madison, WI). The primary screen consisted of INX-315 dosed at a single concentration of 100 nmol/L in 1% DMSO across each platform within the SelectScreen array of assays, LanthaScreen Eu Kinase Binding Assay; AdaptaScreen; and Z'LyteScreen using preestablished conditions at Thermo Fisher Scientific as shown in Supplementary Table S2. […] The follow-up screen consisted of 10-point dose–response curves for INX-315 from 1 µmol/L to 0.0495 nmol/L.

MAP3K5 (ASK1) = molecular target: T2, MAP3K5 (ASK1) (Homo sapiens, UniProt Q99683)
T2 construct: purchased Thermo Fisher Scientific SelectScreen (plus Nanosyn / Reaction Biology for CDK/cyclin lines)
Description: as §1

BMPR1B (ALK6) = molecular target: T3, BMPR1B (ALK6) (Homo sapiens, UniProt O00238)
T3 construct: purchased Thermo Fisher Scientific SelectScreen (plus Nanosyn / Reaction Biology for CDK/cyclin lines)
Description: as §1

CAMKK1 (CAMKKA) = molecular target: T4, CAMKK1 (CAMKKA) (Homo sapiens, UniProt Q8N5S9)
T4 construct: purchased Thermo Fisher Scientific SelectScreen (plus Nanosyn / Reaction Biology for CDK/cyclin lines)
Description: as §1

CAMK2G (CaMKII gamma) = molecular target: T5, CAMK2G (CaMKII gamma) (Homo sapiens, UniProt Q13555)
T5 construct: purchased Thermo Fisher Scientific SelectScreen (plus Nanosyn / Reaction Biology for CDK/cyclin lines)
Description: as §1

EPHA6 = molecular target: T6, EPHA6 (Homo sapiens, UniProt Q9UF33)
T6 construct: purchased Thermo Fisher Scientific SelectScreen (plus Nanosyn / Reaction Biology for CDK/cyclin lines)
Description: as §1

ACVR1 (ALK2) R206H = molecular target: T7, ACVR1 (ALK2) R206H (Homo sapiens, UniProt Q04771, R206H)
T7 construct: purchased Thermo Fisher Scientific SelectScreen (plus Nanosyn / Reaction Biology for CDK/cyclin lines)
Description: as §1

DAPK2 = molecular target: T8, DAPK2 (Homo sapiens, UniProt Q9UIK4)
T8 construct: purchased Thermo Fisher Scientific SelectScreen (plus Nanosyn / Reaction Biology for CDK/cyclin lines)
T8 sequence (Q9UIK4 whole entry): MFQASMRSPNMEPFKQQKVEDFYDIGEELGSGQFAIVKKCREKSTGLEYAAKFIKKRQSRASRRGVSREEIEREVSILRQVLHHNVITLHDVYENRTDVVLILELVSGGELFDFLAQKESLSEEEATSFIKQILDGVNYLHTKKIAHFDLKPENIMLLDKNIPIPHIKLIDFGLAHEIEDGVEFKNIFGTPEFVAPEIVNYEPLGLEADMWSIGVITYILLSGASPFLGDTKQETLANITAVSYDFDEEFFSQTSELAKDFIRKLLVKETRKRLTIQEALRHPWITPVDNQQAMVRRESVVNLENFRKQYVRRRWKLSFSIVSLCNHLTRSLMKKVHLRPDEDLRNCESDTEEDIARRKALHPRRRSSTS
Description: as §1

ABL1 H396P = molecular target: T9, ABL1 H396P (Homo sapiens, UniProt P00519, H396P)
T9 construct: purchased Thermo Fisher Scientific SelectScreen (plus Nanosyn / Reaction Biology for CDK/cyclin lines)
Description: as §1

ZAK = molecular target: T10, ZAK (Homo sapiens, UniProt Q9NYL2)
T10 construct: purchased Thermo Fisher Scientific SelectScreen (plus Nanosyn / Reaction Biology for CDK/cyclin lines)
Description: as §1

RET G691S = molecular target: T11, RET G691S (Homo sapiens, UniProt P07949, G691S)
T11 construct: purchased Thermo Fisher Scientific SelectScreen (plus Nanosyn / Reaction Biology for CDK/cyclin lines)
Description: as §1

[1] = molecular target: T12, MAP2K6 (MKK6) S207E T211E (Homo sapiens, UniProt P52564, S207E/T211E)
T12 construct: purchased Thermo Fisher Scientific SelectScreen (plus Nanosyn / Reaction Biology for CDK/cyclin lines)
Description: as §1

AAK1 = molecular target: T13, AAK1 (Homo sapiens, UniProt Q2M2I8)
T13 construct: purchased Thermo Fisher Scientific SelectScreen (plus Nanosyn / Reaction Biology for CDK/cyclin lines)
Description: as §1

FGFR3 K650M = molecular target: T14, FGFR3 K650M (Homo sapiens, UniProt P22607, K650M)
T14 construct: purchased Thermo Fisher Scientific SelectScreen (plus Nanosyn / Reaction Biology for CDK/cyclin lines)
Description: as §1

MET D1228H = molecular target: T15, MET D1228H (Homo sapiens, UniProt P08581, D1228H)
T15 construct: purchased Thermo Fisher Scientific SelectScreen (plus Nanosyn / Reaction Biology for CDK/cyclin lines)
Description: as §1

LATS2 = molecular target: T16, LATS2 (Homo sapiens, UniProt Q9NRM7)
T16 construct: purchased Thermo Fisher Scientific SelectScreen (plus Nanosyn / Reaction Biology for CDK/cyclin lines)
T16 sequence (Q9NRM7 whole entry): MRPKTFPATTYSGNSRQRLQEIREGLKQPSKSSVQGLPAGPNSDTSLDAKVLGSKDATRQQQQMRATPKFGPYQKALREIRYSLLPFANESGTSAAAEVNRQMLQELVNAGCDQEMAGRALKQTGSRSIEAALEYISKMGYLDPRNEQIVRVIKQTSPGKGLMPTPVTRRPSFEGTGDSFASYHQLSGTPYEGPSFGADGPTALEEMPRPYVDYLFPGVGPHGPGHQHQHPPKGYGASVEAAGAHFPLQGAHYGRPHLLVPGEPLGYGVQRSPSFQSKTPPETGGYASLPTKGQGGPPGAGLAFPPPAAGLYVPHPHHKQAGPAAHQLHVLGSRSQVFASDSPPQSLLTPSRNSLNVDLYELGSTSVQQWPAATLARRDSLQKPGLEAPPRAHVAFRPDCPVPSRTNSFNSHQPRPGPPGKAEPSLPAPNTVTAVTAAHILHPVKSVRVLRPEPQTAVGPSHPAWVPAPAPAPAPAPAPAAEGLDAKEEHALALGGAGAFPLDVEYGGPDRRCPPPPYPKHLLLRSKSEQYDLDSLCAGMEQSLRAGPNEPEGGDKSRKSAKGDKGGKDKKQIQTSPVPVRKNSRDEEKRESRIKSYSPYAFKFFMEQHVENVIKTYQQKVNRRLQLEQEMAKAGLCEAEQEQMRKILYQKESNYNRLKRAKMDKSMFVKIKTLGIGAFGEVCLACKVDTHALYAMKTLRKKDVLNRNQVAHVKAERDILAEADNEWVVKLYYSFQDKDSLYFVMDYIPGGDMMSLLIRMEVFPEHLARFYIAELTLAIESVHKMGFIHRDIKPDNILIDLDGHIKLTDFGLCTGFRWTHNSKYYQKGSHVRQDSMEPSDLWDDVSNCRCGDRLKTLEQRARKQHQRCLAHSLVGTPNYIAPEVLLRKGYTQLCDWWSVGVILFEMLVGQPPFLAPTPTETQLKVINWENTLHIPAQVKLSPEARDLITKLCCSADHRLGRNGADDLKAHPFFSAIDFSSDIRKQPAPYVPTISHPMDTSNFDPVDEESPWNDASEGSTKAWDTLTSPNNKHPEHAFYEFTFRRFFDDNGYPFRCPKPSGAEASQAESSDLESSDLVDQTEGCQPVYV
Description: as §1

RAF1 (cRAF) Y340D Y341D = molecular target: T17, RAF1 (cRAF) Y340D Y341D (Homo sapiens, UniProt P04049, Y340D/Y341D)
T17 construct: purchased Thermo Fisher Scientific SelectScreen (plus Nanosyn / Reaction Biology for CDK/cyclin lines)
Description: as §1

ABL1 Q252H = molecular target: T18, ABL1 Q252H (Homo sapiens, UniProt P00519, Q252H)
T18 construct: purchased Thermo Fisher Scientific SelectScreen (plus Nanosyn / Reaction Biology for CDK/cyclin lines)
Description: as §1

DMPK = molecular target: T19, DMPK (Homo sapiens, UniProt Q09013)
T19 construct: purchased Thermo Fisher Scientific SelectScreen (plus Nanosyn / Reaction Biology for CDK/cyclin lines)
Description: as §1

DDR2 N456S = molecular target: T20, DDR2 N456S (Homo sapiens, UniProt Q16832, N456S)
T20 construct: purchased Thermo Fisher Scientific SelectScreen (plus Nanosyn / Reaction Biology for CDK/cyclin lines)
Description: as §1

MLK4 = molecular target: T21, MLK4 (Homo sapiens, UniProt Q5TCX8)
T21 construct: purchased Thermo Fisher Scientific SelectScreen (plus Nanosyn / Reaction Biology for CDK/cyclin lines)
Description: as §1

RIPK2 = molecular target: T22, RIPK2 (Homo sapiens, UniProt O43353)
T22 construct: purchased Thermo Fisher Scientific SelectScreen (plus Nanosyn / Reaction Biology for CDK/cyclin lines)
Description: as §1

MAP4K1 (HPK1) = molecular target: T23, MAP4K1 (HPK1) (Homo sapiens, UniProt Q92918)
T23 construct: purchased Thermo Fisher Scientific SelectScreen (plus Nanosyn / Reaction Biology for CDK/cyclin lines)
Description: as §1

EPHA3 = molecular target: T24, EPHA3 (Homo sapiens, UniProt P29320)
T24 construct: purchased Thermo Fisher Scientific SelectScreen (plus Nanosyn / Reaction Biology for CDK/cyclin lines)
Description: as §1

KIT A829P = molecular target: T25, KIT A829P (Homo sapiens, UniProt P10721, A829P)
T25 construct: purchased Thermo Fisher Scientific SelectScreen (plus Nanosyn / Reaction Biology for CDK/cyclin lines)
Description: as §1

PRKACG (PRKAC gamma) = molecular target: T26, PRKACG (PRKAC gamma) (Homo sapiens, UniProt P22612)
T26 construct: purchased Thermo Fisher Scientific SelectScreen (plus Nanosyn / Reaction Biology for CDK/cyclin lines)
Description: as §1

MLCK (MLCK2) = molecular target: T27, MLCK (MLCK2) (Homo sapiens, UniProt Q32MK0)
T27 construct: purchased Thermo Fisher Scientific SelectScreen (plus Nanosyn / Reaction Biology for CDK/cyclin lines)
Description: as §1

AMPK (A2/B2/G1) = molecular target: T28, AMPK (A2/B2/G1) (Homo sapiens, UniProt P54646)
T28 construct: purchased Thermo Fisher Scientific SelectScreen (plus Nanosyn / Reaction Biology for CDK/cyclin lines)
Description: as §1

TEK (TIE2) R849W = molecular target: T29, TEK (TIE2) R849W (Homo sapiens, UniProt Q02763, R849W)
T29 construct: purchased Thermo Fisher Scientific SelectScreen (plus Nanosyn / Reaction Biology for CDK/cyclin lines)
Description: as §1

IRAK3 = molecular target: T30, IRAK3 (Homo sapiens, UniProt Q9Y616)
T30 construct: purchased Thermo Fisher Scientific SelectScreen (plus Nanosyn / Reaction Biology for CDK/cyclin lines)
Description: as §1

RET V804M = molecular target: T31, RET V804M (Homo sapiens, UniProt P07949, V804M)
T31 construct: purchased Thermo Fisher Scientific SelectScreen (plus Nanosyn / Reaction Biology for CDK/cyclin lines)
Description: as §1

WNK2 = molecular target: T32, WNK2 (Homo sapiens, UniProt Q9Y3S1)
T32 construct: purchased Thermo Fisher Scientific SelectScreen (plus Nanosyn / Reaction Biology for CDK/cyclin lines)
T32 sequence (Q9Y3S1 whole entry): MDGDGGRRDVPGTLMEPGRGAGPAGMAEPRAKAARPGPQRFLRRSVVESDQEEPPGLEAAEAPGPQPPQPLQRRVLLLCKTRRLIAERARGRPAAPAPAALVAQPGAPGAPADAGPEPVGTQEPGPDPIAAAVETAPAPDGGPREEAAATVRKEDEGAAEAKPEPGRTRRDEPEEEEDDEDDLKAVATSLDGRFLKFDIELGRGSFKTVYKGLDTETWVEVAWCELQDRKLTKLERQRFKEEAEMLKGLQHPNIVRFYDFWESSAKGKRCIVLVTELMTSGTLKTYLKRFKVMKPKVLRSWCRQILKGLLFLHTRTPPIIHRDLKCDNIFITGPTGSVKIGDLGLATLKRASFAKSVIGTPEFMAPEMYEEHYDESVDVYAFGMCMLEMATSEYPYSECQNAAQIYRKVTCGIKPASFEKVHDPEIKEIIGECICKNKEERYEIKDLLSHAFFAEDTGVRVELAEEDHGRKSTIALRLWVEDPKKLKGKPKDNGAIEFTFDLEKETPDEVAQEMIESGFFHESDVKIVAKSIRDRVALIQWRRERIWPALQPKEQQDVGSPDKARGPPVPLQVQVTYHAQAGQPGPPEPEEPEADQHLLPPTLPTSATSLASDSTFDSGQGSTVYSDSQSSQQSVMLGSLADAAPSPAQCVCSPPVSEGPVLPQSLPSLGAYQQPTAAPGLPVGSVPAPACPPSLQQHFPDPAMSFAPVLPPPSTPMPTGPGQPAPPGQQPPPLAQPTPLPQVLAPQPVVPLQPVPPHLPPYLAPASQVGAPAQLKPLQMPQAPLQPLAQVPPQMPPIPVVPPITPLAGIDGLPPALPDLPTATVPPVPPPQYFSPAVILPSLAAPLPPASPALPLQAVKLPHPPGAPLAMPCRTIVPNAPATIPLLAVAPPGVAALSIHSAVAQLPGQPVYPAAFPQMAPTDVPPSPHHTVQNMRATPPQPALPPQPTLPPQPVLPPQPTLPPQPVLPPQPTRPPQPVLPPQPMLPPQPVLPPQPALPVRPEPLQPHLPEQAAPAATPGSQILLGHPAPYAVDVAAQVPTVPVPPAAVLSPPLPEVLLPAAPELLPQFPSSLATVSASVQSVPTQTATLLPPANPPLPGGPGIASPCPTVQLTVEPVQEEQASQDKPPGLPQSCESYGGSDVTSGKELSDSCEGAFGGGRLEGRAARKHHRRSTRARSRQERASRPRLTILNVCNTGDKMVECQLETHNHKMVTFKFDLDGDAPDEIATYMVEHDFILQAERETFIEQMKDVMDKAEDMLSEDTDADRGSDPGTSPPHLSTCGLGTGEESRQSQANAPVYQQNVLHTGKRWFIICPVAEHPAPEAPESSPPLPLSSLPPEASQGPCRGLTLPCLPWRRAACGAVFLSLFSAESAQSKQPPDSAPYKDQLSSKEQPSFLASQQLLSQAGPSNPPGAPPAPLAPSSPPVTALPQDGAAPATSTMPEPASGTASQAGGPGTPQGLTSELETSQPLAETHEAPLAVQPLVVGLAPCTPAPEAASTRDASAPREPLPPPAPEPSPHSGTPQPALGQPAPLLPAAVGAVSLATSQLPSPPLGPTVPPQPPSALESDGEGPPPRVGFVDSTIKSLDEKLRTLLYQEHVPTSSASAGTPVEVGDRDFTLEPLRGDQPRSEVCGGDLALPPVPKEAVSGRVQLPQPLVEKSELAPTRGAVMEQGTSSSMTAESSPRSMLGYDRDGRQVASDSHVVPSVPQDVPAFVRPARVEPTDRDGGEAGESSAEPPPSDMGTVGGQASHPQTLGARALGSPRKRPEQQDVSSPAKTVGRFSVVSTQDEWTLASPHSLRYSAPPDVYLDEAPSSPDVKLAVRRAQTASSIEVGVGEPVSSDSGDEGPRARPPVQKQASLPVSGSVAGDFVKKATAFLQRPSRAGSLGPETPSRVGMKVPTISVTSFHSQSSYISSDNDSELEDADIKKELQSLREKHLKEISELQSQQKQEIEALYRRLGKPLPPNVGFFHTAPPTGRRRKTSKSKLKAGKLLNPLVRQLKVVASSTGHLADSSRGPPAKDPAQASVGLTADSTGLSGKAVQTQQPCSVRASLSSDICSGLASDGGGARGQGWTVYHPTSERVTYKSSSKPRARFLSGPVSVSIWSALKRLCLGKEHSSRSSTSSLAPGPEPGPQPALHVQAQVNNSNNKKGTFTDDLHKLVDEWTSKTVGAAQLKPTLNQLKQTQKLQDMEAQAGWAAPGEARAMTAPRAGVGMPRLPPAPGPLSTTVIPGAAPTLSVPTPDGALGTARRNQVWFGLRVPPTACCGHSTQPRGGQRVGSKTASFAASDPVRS
Description: as §1

MYO3B (MYO3 beta) = molecular target: T33, MYO3B (MYO3 beta) (Homo sapiens, UniProt Q8WXR4)
T33 construct: purchased Thermo Fisher Scientific SelectScreen (plus Nanosyn / Reaction Biology for CDK/cyclin lines)
Description: as §1

HUNK = molecular target: T34, HUNK (Homo sapiens, UniProt P57058)
T34 construct: purchased Thermo Fisher Scientific SelectScreen (plus Nanosyn / Reaction Biology for CDK/cyclin lines)
Description: as §1

GAK = molecular target: T35, GAK (Homo sapiens, UniProt O14976)
T35 construct: purchased Thermo Fisher Scientific SelectScreen (plus Nanosyn / Reaction Biology for CDK/cyclin lines)
Description: as §1

STK38L (NDR2) = molecular target: T36, STK38L (NDR2) (Homo sapiens, UniProt Q9Y2H1)
T36 construct: purchased Thermo Fisher Scientific SelectScreen (plus Nanosyn / Reaction Biology for CDK/cyclin lines)
T36 sequence (Q9Y2H1 whole entry): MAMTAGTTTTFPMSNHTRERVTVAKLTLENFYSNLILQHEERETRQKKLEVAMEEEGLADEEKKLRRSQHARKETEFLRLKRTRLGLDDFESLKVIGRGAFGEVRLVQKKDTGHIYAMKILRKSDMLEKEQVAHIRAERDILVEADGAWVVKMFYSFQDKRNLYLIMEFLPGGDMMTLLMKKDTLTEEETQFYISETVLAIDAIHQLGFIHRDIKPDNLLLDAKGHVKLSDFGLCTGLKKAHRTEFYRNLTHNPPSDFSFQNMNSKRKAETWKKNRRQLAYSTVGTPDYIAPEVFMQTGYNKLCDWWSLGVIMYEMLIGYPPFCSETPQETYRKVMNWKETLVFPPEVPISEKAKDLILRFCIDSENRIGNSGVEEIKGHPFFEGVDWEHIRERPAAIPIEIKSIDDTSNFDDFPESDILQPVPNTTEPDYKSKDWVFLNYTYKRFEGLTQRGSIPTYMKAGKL
Description: as §1

TEC = molecular target: T37, TEC (Homo sapiens, UniProt P42680)
T37 construct: purchased Thermo Fisher Scientific SelectScreen (plus Nanosyn / Reaction Biology for CDK/cyclin lines)
Description: as §1

T1 sequence (Q8IVH8 whole entry): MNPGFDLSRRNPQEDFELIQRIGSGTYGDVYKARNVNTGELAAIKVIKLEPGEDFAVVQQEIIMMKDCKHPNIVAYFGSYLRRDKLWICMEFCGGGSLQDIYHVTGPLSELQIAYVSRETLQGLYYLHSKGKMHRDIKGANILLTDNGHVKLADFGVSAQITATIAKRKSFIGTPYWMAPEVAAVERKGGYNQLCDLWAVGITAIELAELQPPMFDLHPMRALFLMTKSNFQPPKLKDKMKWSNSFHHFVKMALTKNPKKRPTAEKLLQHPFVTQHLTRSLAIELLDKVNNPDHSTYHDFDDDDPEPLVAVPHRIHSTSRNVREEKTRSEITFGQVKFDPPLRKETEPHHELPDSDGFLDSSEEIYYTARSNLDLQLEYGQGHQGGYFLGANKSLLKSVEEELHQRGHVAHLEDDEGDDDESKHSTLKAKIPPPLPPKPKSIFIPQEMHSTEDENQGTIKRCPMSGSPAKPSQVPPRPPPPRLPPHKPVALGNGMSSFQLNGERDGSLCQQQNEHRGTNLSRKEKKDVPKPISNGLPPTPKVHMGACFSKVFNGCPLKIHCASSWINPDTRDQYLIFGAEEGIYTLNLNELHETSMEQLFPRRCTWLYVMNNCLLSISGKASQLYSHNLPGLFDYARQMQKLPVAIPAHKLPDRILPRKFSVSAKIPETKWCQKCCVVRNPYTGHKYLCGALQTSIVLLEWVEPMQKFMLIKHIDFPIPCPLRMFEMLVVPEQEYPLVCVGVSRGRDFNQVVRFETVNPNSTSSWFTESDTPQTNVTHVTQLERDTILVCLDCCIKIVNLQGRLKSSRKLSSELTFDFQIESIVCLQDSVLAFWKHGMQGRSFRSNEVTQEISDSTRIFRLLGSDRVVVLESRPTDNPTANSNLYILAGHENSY

Question: With `NS(=O)(=O)c1ccc(Nc2ncc3cc4n(c3n2)C2(CCCCC2)C(=O)NN4)cc1` [INX-315] as the compound, how does the inhibition at 0.1 µM (MAP4K3 (GLK)) read?
Answer: 8%

Question: And the inhibition at 0.1 µM (MAP3K5 (ASK1))?
Answer: 10%

Question: What about the inhibition at 0.1 µM (BMPR1B (ALK6)) of the same compound?
Answer: 1%

Question: What about the inhibition at 0.1 µM (CAMKK1 (CAMKKA)) of the same compound?
Answer: 6%

Question: And the inhibition at 0.1 µM (CAMK2G (CaMKII gamma))?
Answer: -1%

Question: And the inhibition at 0.1 µM (EPHA6)?
Answer: 10%

Question: And the inhibition at 0.1 µM (ACVR1 (ALK2) R206H)?
Answer: -1%

Question: What about the inhibition at 0.1 µM (DAPK2) of the same compound?
Answer: 11%

Question: And the inhibition at 0.1 µM (ABL1 H396P)?
Answer: 12%

Question: What about the inhibition at 0.1 µM (ZAK) of the same compound?
Answer: 3%

Question: What about the inhibition at 0.1 µM (RET G691S) of the same compound?
Answer: 35%

Question: What about the inhibition at 0.1 µM [1] of the same compound?
Answer: 7%

Question: What about the inhibition at 0.1 µM (AAK1) of the same compound?
Answer: 77%

Question: What about the inhibition at 0.1 µM (FGFR3 K650M) of the same compound?
Answer: 14%

Question: What about the inhibition at 0.1 µM (MET D1228H) of the same compound?
Answer: -6%

Question: And the inhibition at 0.1 µM (LATS2)?
Answer: 8%

Question: What about the inhibition at 0.1 µM (RAF1 (cRAF) Y340D Y341D) of the same compound?
Answer: -2%

Question: What about the inhibition at 0.1 µM (ABL1 Q252H) of the same compound?
Answer: 19%

Question: What about the inhibition at 0.1 µM (DMPK) of the same compound?
Answer: 6%

Question: What about the inhibition at 0.1 µM (DDR2 N456S) of the same compound?
Answer: 14%

Question: What about the inhibition at 0.1 µM (MLK4) of the same compound?
Answer: -5%

Question: And the inhibition at 0.1 µM (RIPK2)?
Answer: -1%

Question: What about the inhibition at 0.1 µM (MAP4K1 (HPK1)) of the same compound?
Answer: 17%

Question: And the inhibition at 0.1 µM (EPHA3)?
Answer: -1%

Question: What about the inhibition at 0.1 µM (KIT A829P) of the same compound?
Answer: 28%

Question: And the inhibition at 0.1 µM (PRKACG (PRKAC gamma))?
Answer: -12%

Question: What about the inhibition at 0.1 µM (MLCK (MLCK2)) of the same compound?
Answer: 5%

Question: And the inhibition at 0.1 µM (AMPK (A2/B2/G1))?
Answer: 9%

Question: And the inhibition at 0.1 µM (TEK (TIE2) R849W)?
Answer: 7%

Question: What about the inhibition at 0.1 µM (IRAK3) of the same compound?
Answer: 45%

Question: What about the inhibition at 0.1 µM (RET V804M) of the same compound?
Answer: 21%

Question: And the inhibition at 0.1 µM (WNK2)?
Answer: -9%

Question: And the inhibition at 0.1 µM (MYO3B (MYO3 beta))?
Answer: 0%

Question: And the inhibition at 0.1 µM (HUNK)?
Answer: -5%

Question: And the inhibition at 0.1 µM (GAK)?
Answer: 38%

Question: And the inhibition at 0.1 µM (STK38L (NDR2))?
Answer: 0%

Question: And the inhibition at 0.1 µM (TEC)?
Answer: 4%
